This note sets out measurements from patent US20100048604A1, “Ligands for Aldoketoreductases” (priority 2004, published 2010).

SMILES strings stand for the structures. Residue numbers refer to the chain shown, from its start.

Type in all cases: biochemical
One assay has as its target T1, AKR1C1 (Homo sapiens, UniProt Q04828).
T1 construct: gift of the Penning lab (University of Pennsylvania School of Medicine)
T1 sequence (Q04828 1-323): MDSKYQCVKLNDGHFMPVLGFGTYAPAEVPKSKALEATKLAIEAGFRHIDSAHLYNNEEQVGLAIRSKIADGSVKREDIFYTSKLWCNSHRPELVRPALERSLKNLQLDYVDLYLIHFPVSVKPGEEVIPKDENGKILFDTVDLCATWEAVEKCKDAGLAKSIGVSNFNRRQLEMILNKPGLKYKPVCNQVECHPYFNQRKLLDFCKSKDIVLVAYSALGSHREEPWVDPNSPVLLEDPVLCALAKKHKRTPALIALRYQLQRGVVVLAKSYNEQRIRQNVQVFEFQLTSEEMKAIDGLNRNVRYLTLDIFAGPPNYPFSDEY
Briefly: Steady state kinetic parameters of fluorogenic substrates with purified AKR1C isozymes. Set-up: key: no activity = 10 μg enzyme produced less than 0.1 nmol product per min (determined fluorimetrically). To be noted: isozyme 1C1; 10 μg enzyme, fluorimetric. The text has this:
(§1) AKR1C2 and AKR1C3 Selective Probes: Probes (5a-5i) were examined as substrates for the four purified human HSD isozymes (AKR1C1-AKR1C4) under standard assay conditions [catalytic quantities of enzyme, an excess of cofactor (NADPH)]. The initial reaction rates were used to derive standard kinetic parameters (kcat and Km, Materials and Methods).
(§2) Substrate tolerance of AKR1Cs: Isozyme Activity with 5a-5i: Activity of the second generation of fluorogenic substrates with the AKR1C isozymes was determined as follows. To a STARNA semi-micro fluorimeter cell (with 4 polished windows) was added 100 μL of 1 M potassium phosphate buffer (pH 6), 840 μL doubly deionized water, and 20 μL of 12.5 mM NADPH. After mixing the aqueous components thoroughly, 20 μL of acetonitrile was added as a cosolvent and mixed well. 20 μL of 2.5 mM second generation fluorogenic ketone in acetonitrile (5a-5i) was then added and mixed. 4 μL of undiluted AKR1C (provided generously by the Penning lab at concentrations of 2.5 mg/mL) were then added to the cuvette for a total of 10 μg purified enzyme in the 1 mL assay volume. Fluorescence arising from the respective alcohol reduction product was then monitored over the course of 5-10 minutes.
(§3) Binding constant and catalytic rates (Km and kcat) of the second generation of fluorogenic substrates was determined as follows. To a STARNA semi-micro fluorometer cell (with 4 polished windows) was added 100 μL of 1 M potassium phosphate buffer (pH 6), 840 μL doubly deionized water, and 20 AL of 12.5 mM NADPH. After mixing the aqueous components thoroughly, 20 μL of acetonitrile was added as a cosolvent and mixed well. 20 μL of the second generation fluorogenic ketone (5a-5i) was then added and mixed to achieve assay concentrations of 5Km to Km/5. To initiate the reduction, 2 or 4 μL of diluted AKR1C (1:2 to 1:100, depending on the kinetics of a particular isozyme's reduction of a substrate) was then added to the cuvette. Fluorescence arising from the respective alcohol reduction product was then monitored over the course of 3 minutes (Excitation and emission band pass slits both at 4 nm, lamp 700 V, λexc 410 nm, λem 510). The rate of product formation, expressed in units of nanomoles per minute, were calculated according to previously published procedures (Wierzchowski, J.; Dafeldecker, W. P.; Holmquist, B.; Vallee, B. L. Anal. Biochem. 1989, 178, 57-62):
(§4) initial rate=[nst×(Ft−F0)/(Fst)]/t (1)
(§5) where Ft and F0 represent the fluorescence at times t and 0 minutes, nst is the nanomoles of product in a known concentration of product, and Fst is the fluorescence resulting from nst of product. Kinetic parameters were approximated by GraFit (Erithacus Software, Surrey, UK) nonlinear regression analysis program to fit the untransformed data to a hyperbolic function as originally described (Wierzchowski, J.; Dafeldecker, W. P.; Holmquist, B.; Vallee, B. L. Anal. Biochem. 1989, 178, 57-62). Reported enzymatic kinetic parameters are the average of three independent determinations from three different preparations of substrate and enzyme.

Assay [1] concerns the target T2, AKR1C3 (Homo sapiens, UniProt P42330).
T2 construct: gift of Professor Trevor Penning (University of Pennsylvania School of Medicine)
T2 sequence (P42330 1-323): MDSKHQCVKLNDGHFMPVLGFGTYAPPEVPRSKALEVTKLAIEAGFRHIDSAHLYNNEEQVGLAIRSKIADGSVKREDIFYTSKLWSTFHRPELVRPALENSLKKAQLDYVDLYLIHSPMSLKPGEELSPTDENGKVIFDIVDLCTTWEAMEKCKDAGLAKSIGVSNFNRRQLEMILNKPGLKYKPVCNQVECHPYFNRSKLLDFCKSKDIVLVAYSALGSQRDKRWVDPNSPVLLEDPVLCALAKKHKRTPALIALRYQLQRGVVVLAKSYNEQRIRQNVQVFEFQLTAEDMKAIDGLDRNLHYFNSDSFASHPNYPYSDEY
Described as above. To be noted: isozyme 1C3, fluorimetric; for activity as substrate (product formation): 10 μg enzyme; for Kcat / Km: potassium phosphate buffer pH 6, NADPH. The protocol: The initial reaction rates were used to derive standard kinetic parameters (kcat and Km, Materials and Methods).
Substrate tolerance of AKR1Cs: Isozyme Activity with 5a-5i: Activity of the second generation of fluorogenic substrates with the AKR1C isozymes was determined as follows. […] After mixing the aqueous components thoroughly, 20 μL of acetonitrile was added as a cosolvent and mixed well. […] 4 μL of undiluted AKR1C (provided generously by the Penning lab at concentrations of 2.5 mg/mL) were then added to the cuvette for a total of 10 μg purified enzyme in the 1 mL assay volume. Fluorescence arising from the respective alcohol reduction product was then monitored over the course of 5-10 minutes.
Binding constant and catalytic rates (Km and kcat) of the second generation of fluorogenic substrates was determined as follows. […] After mixing the aqueous components thoroughly, 20 μL of acetonitrile was added as a cosolvent and mixed well. […] To initiate the reduction, 2 or 4 μL of diluted AKR1C (1:2 to 1:100, depending on the kinetics of a particular isozyme's reduction of a substrate) was then added to the cuvette. Fluorescence arising from the respective alcohol reduction product was then monitored over the course of 3 minutes (Excitation and emission band pass slits both at 4 nm, lamp 700 V, λexc 410 nm, λem 510).
as §4
where Ft and F0 represent the fluorescence at times t and 0 minutes, nst is the nanomoles of product in a known concentration of product, and Fst is the fluorescence resulting from nst of product. […] Reported enzymatic kinetic parameters are the average of three independent determinations from three different preparations of substrate and enzyme.

The next assay addresses T3, AKR1C2 (Homo sapiens, UniProt P52895).
T3 construct: gift of the Penning lab (University of Pennsylvania School of Medicine)
T3 sequence (P52895 1-323): T1 sequence (Q04828 1-323) with T38V, R47H, L54V, C87S, V151M, R170H, Q172L
The description is as above. Further details: key to activity as substrate (product formation): no activity = 10 μg enzyme produced less than 0.1 nmol product per min (determined fluorimetrically). To be noted: isozyme 1C2, fluorimetric; for activity as substrate (product formation): 10 μg enzyme.
Text: as §1, §2, §3, §4, §5

Another assay concerns the target T4, AKR1C4 (Homo sapiens, UniProt P17516).
T4 construct: gift of the Penning lab (University of Pennsylvania School of Medicine)
T4 sequence (P17516 1-323): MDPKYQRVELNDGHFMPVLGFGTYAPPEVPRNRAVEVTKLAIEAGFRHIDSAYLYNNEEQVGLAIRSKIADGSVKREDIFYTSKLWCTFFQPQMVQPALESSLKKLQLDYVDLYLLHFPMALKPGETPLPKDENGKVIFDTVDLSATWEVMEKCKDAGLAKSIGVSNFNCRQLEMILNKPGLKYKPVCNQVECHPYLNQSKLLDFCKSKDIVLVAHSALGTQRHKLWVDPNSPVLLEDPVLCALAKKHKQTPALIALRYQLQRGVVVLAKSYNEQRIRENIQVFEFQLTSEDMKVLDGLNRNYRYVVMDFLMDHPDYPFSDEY
The assay is described as above. Set-up: key to activity as substrate (product formation): no activity = 10 μg enzyme produced less than 0.1 nmol product per min (determined fluorimetrically). To be noted: isozyme 1C4, fluorimetric; for activity as substrate (product formation): 10 μg enzyme; for Kcat / Km: potassium phosphate buffer pH 6, NADPH.
Text: as §1, §2, §3, §4, §5

In assay [2] the target is T2, AKR1C3. The experiment in a line: Determination of kinetic parameters for AKR1C3 (fluorogenic substrate 5). To be noted: Type 2 isozyme of 3α-HSD (AKR 1C3). The protocol: Whether the activity of human enzymes may be imaged by probe 5 was investigated. Type 2 isozyme of 3α-HSD (AKR 1C3) was selected for this study owing to its important physiological role.
Fluorogenic substrate 5 reduction was monitored on a Hitachi F-4500 fluorimeter in Starna quartz cuvettes fluorometrically in 1 mL systems containing 100 mM potassium phosphate pH 6.0 containing excess of NADPH cofactor (250 μM) and various amounts of the substrate (0.1953-50 μM) dissolved in 4% acetonitrile. […] Cuvettes were mixed thoroughly after addition of cofactor, cosolvent, and substrate. Reactions were initiated by the addition of 4 μL of dilute AKR1C3 (115 μg/mL) and were corrected for nonenzymatic rates. All reactions were followed by monitoring the increase in fluorescence of the product alcohol for 5 minutes at λem 510 nm with λex 440 nm (Excitation and emission band pass slits both at 2.5 nm, lamp 900 V) at 37° C. The initial velocities, expressed in units of nanomoles per minute, were calculated according to previously published procedures (Wierzchowski, J.; Dafeldecker, W. P.; Holmquist, B.; Vallee, B. L. Anal. Biochem. 1989, 178, 57-62): initial rate=[nst×(Ft−F0)/(Fst)]/t where Ft and F0 represent the fluorescence at time t and 0, nst is the nanomoles of the product standard, and Fst is the fluorescence resulting from nst of product. Kinetic constants were approximated using the GraFit (Erithacus Software, Surrey, UK) non-linear regression analysis program to fit the untransformed data to a hyperbolic function as originally described (Wilkinson, G. N. Biochem. J. 1961, 80, 324-332), yielding estimated values of kcat, Km, and their associated standard errors.

Take `CC(C)C(=O)c1cc(=O)oc2c3c4c(cc12)CCCN4CCC3`: the “activity as substrate (product formation)” value (from here on “activity as substrate”) at AKR1C1, at AKR1C3 [1], at AKR1C2 and on AKR1C4 was “no activity” in each case.
Consider `O=C(c1cc(=O)oc2c3c4c(cc12)CCCN4CCC3)C1CCCCC1`, for which the “activity as substrate” value on AKR1C1, at AKR1C3 [1], on AKR1C2 and on AKR1C4 was “no activity” in each case.
For `O=C1CCc2c1c1cc3c4c(c1oc2=O)CCCN4CCC3`, on AKR1C3 [1], the Kcat was 0.12 s⁻¹ and the Michaelis constant (Km) was 0.13 µM. In addition, the “activity as substrate” value at AKR1C4 is reported as “no activity”.
Take `CC(=O)c1cc(=O)oc2cc(N(C)C)ccc12`: on AKR1C3 [1], the Kcat came out at 0.145 s⁻¹ and the Km was 4.3 µM. Also, at AKR1C4, the Kcat stood at 0.035 s⁻¹ and the Km was 14.8 µM.
Take `CC(=O)c1cc(=O)oc2cc3c(cc12)CCCN3`: the “activity as substrate” value at AKR1C1 and on AKR1C4 was “no activity” throughout. Moreover, the Kcat at AKR1C3 [1] was found to be 0.155 s⁻¹; at AKR1C2 (potassium phosphate buffer pH 6, NADPH) it was 0.00983 s⁻¹. Besides, the Km at AKR1C3 [1] turned out to be 4.3 µM.
Take `CC(=O)c1cc(=O)oc2c3c(ccc12)NCCC3`: the Kcat at AKR1C3 [1] was determined as 0.115 s⁻¹; on AKR1C4 it was 0.0233 s⁻¹. The Km on AKR1C3 [1] was 8.3 µM; on AKR1C4, 40.2 µM.
With `C[C@]12CCC(=O)C[C@@H]1CC[C@@H]1[C@@H]2CC[C@]2(C)[C@@H](O)CC[C@@H]12` [5α-dihydrotestosterone, reference compound], on AKR1C3 [1], the Kcat is 0.00417 s⁻¹ and the Km was determined as 26 µM. On AKR1C3 [2], the Kcat turned out to be 0.00417 s⁻¹ and the Km came out at 26 µM.
Consider `CC(=O)c1cc(=O)oc2c3c4c(cc12)CCCN4CCC3` [drawing 207], for which, on AKR1C3 [1], the Kcat is 0.125 s⁻¹ and the Km is 1.1 µM. On AKR1C4, the Kcat worked out at 0.00633 s⁻¹ and the Michaelis-Menten constant (Km) was 20.6 µM.
Take `O=C(c1ccccc1)c1cc(=O)oc2c3c4c(cc12)CCCN4CCC3` [drawing 210]: at AKR1C3 [1], the Kcat worked out at 0.09 s⁻¹ and the Km is 0.051 µM. For the same compound, on AKR1C4, the Kcat stood at 0.0103 s⁻¹ and the Km was 6.2 µM.
Consider `CC(=O)c1c(Br)c(=O)oc2c3c4c(cc12)CCCN4CCC3` [drawing 212], for which the “activity as substrate” value at AKR1C1, on AKR1C3 [1], at AKR1C2 and on AKR1C4 was “no activity” in each case.
Turning to `CC(=O)c1c(-c2ccccc2)c(=O)oc2c3c4c(cc12)CCCN4CCC3` [drawing 213], the “activity as substrate” value at AKR1C1, at AKR1C3 [1], on AKR1C2 and on AKR1C4 was “no activity” throughout.
